Source: PubChem BioAssay (NCI)
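Five concentrations, 48 hours, 96-well plates. At the GI50, growth is halved. TGI is the concentration that stops growth completely.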

What follows are compounds tested on MOLT-4 leukemia (assay: NCI-60 cell line screen, 48 h).

Compound | TGI [µM]
C/C(CC(=O)NCCc1ccccc1)=N\NC(=O)C[n+]1ccccc1 | > 100

These compounds were tested on NCI-H226 lung (assay: NCI-60 cell line screen, 48 h).

Compound | TGI [µM] | GI50 [µM]
O=c1c2cc(Br)cc(Br)c2nc(CCCl)n1CCO | > 100 | 
CC(=O)[C@@]1(O)CC[C@H]2[C@@H]3C[C@H](C)C4=CC(=O)C=C[C@]4(C)[C@@]3(F)[C@@H](O)C[C@@]21C | > 100 | 
Nc1ccn(C2CCC(CO)O2)c(=O)n1 (stereo not drawn) | > 1000 | > 1000
O=C1CCCC[C@H]1[C@H]1CCC[C@@H]([C@H]2CCCCC2=O)C1=O | > 100 | 
C/C(CC(=O)NCCc1ccccc1)=N\NC(=O)C[n+]1ccccc1 | > 100 | 

The compounds below were run on NCI-H23 lung (assay: NCI-60 cell line screen, 48 h).

Compound | TGI [µM] | GI50 [µM]
O=c1c2cc(Br)cc(Br)c2nc(CCCl)n1CCO | > 100 | 
CC(=O)[C@@]1(O)CC[C@H]2[C@@H]3C[C@H](C)C4=CC(=O)C=C[C@]4(C)[C@@]3(F)[C@@H](O)C[C@@]21C | > 100 | 
Nc1ccn(C2CCC(CO)O2)c(=O)n1 (stereo not drawn) | > 1000 | > 1000
O=C1CCCC[C@H]1[C@H]1CCC[C@@H]([C@H]2CCCCC2=O)C1=O | > 100 | 
O=C1NC2OC(C(O)CO)C(O)C2O1 (stereo not drawn) | > 100 | 
C/C(CC(=O)NCCc1ccccc1)=N\NC(=O)C[n+]1ccccc1 | > 100 | 

Each compound was assayed on NCI-H460 lung (assay: NCI-60 cell line screen, 48 h).

Compound | TGI [µM]
O=c1c2cc(Br)cc(Br)c2nc(CCCl)n1CCO | > 100
CC(=O)[C@@]1(O)CC[C@H]2[C@@H]3C[C@H](C)C4=CC(=O)C=C[C@]4(C)[C@@]3(F)[C@@H](O)C[C@@]21C | > 100
O=C1CCCC[C@H]1[C@H]1CCC[C@@H]([C@H]2CCCCC2=O)C1=O | > 100
O=C1NC2OC(C(O)CO)C(O)C2O1 (stereo not drawn) | > 100
C/C(CC(=O)NCCc1ccccc1)=N\NC(=O)C[n+]1ccccc1 | > 100

Each compound was assayed on NCI-H522 lung (assay: NCI-60 cell line screen, 48 h).

Compound | TGI [µM]
O=c1c2cc(Br)cc(Br)c2nc(CCCl)n1CCO | > 100
CC(=O)[C@@]1(O)CC[C@H]2[C@@H]3C[C@H](C)C4=CC(=O)C=C[C@]4(C)[C@@]3(F)[C@@H](O)C[C@@]21C | > 100
Nc1ccn(C2CCC(CO)O2)c(=O)n1 (stereo not drawn) | > 1000
O=C1CCCC[C@H]1[C@H]1CCC[C@@H]([C@H]2CCCCC2=O)C1=O | > 100
O=C1NC2OC(C(O)CO)C(O)C2O1 (stereo not drawn) | > 100
C/C(CC(=O)NCCc1ccccc1)=N\NC(=O)C[n+]1ccccc1 | > 100

The compounds below were run on NCI/ADR-RES ovarian (assay: NCI-60 cell line screen, 48 h).

Compound | TGI [µM]
CC(=O)[C@@]1(O)CC[C@H]2[C@@H]3C[C@H](C)C4=CC(=O)C=C[C@]4(C)[C@@]3(F)[C@@H](O)C[C@@]21C | > 100
Nc1ccn(C2CCC(CO)O2)c(=O)n1 (stereo not drawn) | > 1000

What follows are compounds tested on OVCAR-3 ovarian (assay: NCI-60 cell line screen, 48 h).

Compound | TGI [µM] | GI50 [µM]
O=c1c2cc(Br)cc(Br)c2nc(CCCl)n1CCO | > 100 | 
CC(=O)[C@@]1(O)CC[C@H]2[C@@H]3C[C@H](C)C4=CC(=O)C=C[C@]4(C)[C@@]3(F)[C@@H](O)C[C@@]21C | > 100 | 
Nc1ccn(C2CCC(CO)O2)c(=O)n1 (stereo not drawn) | > 1000 | > 1000
O=C1CCCC[C@H]1[C@H]1CCC[C@@H]([C@H]2CCCCC2=O)C1=O | > 100 | 
O=C1NC2OC(C(O)CO)C(O)C2O1 (stereo not drawn) | > 100 | 
C/C(CC(=O)NCCc1ccccc1)=N\NC(=O)C[n+]1ccccc1 | > 100 | 

What follows are compounds tested on OVCAR-4 ovarian (assay: NCI-60 cell line screen, 48 h).

Compound | TGI [µM] | GI50 [µM]
O=c1c2cc(Br)cc(Br)c2nc(CCCl)n1CCO | > 100 | 
CC(=O)[C@@]1(O)CC[C@H]2[C@@H]3C[C@H](C)C4=CC(=O)C=C[C@]4(C)[C@@]3(F)[C@@H](O)C[C@@]21C | > 100 | 
Nc1ccn(C2CCC(CO)O2)c(=O)n1 (stereo not drawn) | > 1000 | > 1000
O=C1CCCC[C@H]1[C@H]1CCC[C@@H]([C@H]2CCCCC2=O)C1=O | > 100 | 
O=C1NC2OC(C(O)CO)C(O)C2O1 (stereo not drawn) | > 100 | 

Each compound was assayed on OVCAR-5 ovarian (assay: NCI-60 cell line screen, 48 h).

Compound | TGI [µM] | GI50 [µM]
O=c1c2cc(Br)cc(Br)c2nc(CCCl)n1CCO | > 100 | 
CC(=O)[C@@]1(O)CC[C@H]2[C@@H]3C[C@H](C)C4=CC(=O)C=C[C@]4(C)[C@@]3(F)[C@@H](O)C[C@@]21C | > 100 | 
Nc1ccn(C2CCC(CO)O2)c(=O)n1 (stereo not drawn) | > 1000 | > 1000
O=C1CCCC[C@H]1[C@H]1CCC[C@@H]([C@H]2CCCCC2=O)C1=O | > 100 | 
O=C1NC2OC(C(O)CO)C(O)C2O1 (stereo not drawn) | > 100 | 
C/C(CC(=O)NCCc1ccccc1)=N\NC(=O)C[n+]1ccccc1 | > 100 | 

These compounds were tested on OVCAR-8 ovarian (assay: NCI-60 cell line screen, 48 h).

Compound | TGI [µM]
O=c1c2cc(Br)cc(Br)c2nc(CCCl)n1CCO | > 100
CC(=O)[C@@]1(O)CC[C@H]2[C@@H]3C[C@H](C)C4=CC(=O)C=C[C@]4(C)[C@@]3(F)[C@@H](O)C[C@@]21C | > 100
Nc1ccn(C2CCC(CO)O2)c(=O)n1 (stereo not drawn) | > 1000
O=C1NC2OC(C(O)CO)C(O)C2O1 (stereo not drawn) | > 100
C/C(CC(=O)NCCc1ccccc1)=N\NC(=O)C[n+]1ccccc1 | > 100

Each compound was assayed on PC-3 prostate (assay: NCI-60 cell line screen, 48 h).

Compound | TGI [µM]
CC(=O)[C@@]1(O)CC[C@H]2[C@@H]3C[C@H](C)C4=CC(=O)C=C[C@]4(C)[C@@]3(F)[C@@H](O)C[C@@]21C | > 100
Nc1ccn(C2CCC(CO)O2)c(=O)n1 (stereo not drawn) | > 1000

These compounds were tested on RPMI-8226 leukemia (assay: NCI-60 cell line screen, 48 h).

Compound | TGI [µM] | GI50 [µM]
O=c1c2cc(Br)cc(Br)c2nc(CCCl)n1CCO | > 100 | 
CC(=O)[C@@]1(O)CC[C@H]2[C@@H]3C[C@H](C)C4=CC(=O)C=C[C@]4(C)[C@@]3(F)[C@@H](O)C[C@@]21C | > 100 | 
Nc1ccn(C2CCC(CO)O2)c(=O)n1 (stereo not drawn) | > 1000 | > 1000
O=C1CCCC[C@H]1[C@H]1CCC[C@@H]([C@H]2CCCCC2=O)C1=O | > 100 | 
C/C(CC(=O)NCCc1ccccc1)=N\NC(=O)C[n+]1ccccc1 | > 100 | 

Each compound was assayed on RXF 393 renal (assay: NCI-60 cell line screen, 48 h).

Compound | TGI [µM]
O=c1c2cc(Br)cc(Br)c2nc(CCCl)n1CCO | > 100
CC(=O)[C@@]1(O)CC[C@H]2[C@@H]3C[C@H](C)C4=CC(=O)C=C[C@]4(C)[C@@]3(F)[C@@H](O)C[C@@]21C | > 100
O=C1CCCC[C@H]1[C@H]1CCC[C@@H]([C@H]2CCCCC2=O)C1=O | > 100
C/C(CC(=O)NCCc1ccccc1)=N\NC(=O)C[n+]1ccccc1 | > 100

What follows are compounds tested on RXF-631 renal (assay: NCI-60 cell line screen, 48 h).

Compound | TGI [µM]
O=c1c2cc(Br)cc(Br)c2nc(CCCl)n1CCO | > 100
CC(=O)[C@@]1(O)CC[C@H]2[C@@H]3C[C@H](C)C4=CC(=O)C=C[C@]4(C)[C@@]3(F)[C@@H](O)C[C@@]21C | > 100
O=C1CCCC[C@H]1[C@H]1CCC[C@@H]([C@H]2CCCCC2=O)C1=O | > 100
C/C(CC(=O)NCCc1ccccc1)=N\NC(=O)C[n+]1ccccc1 | > 100

Each compound was assayed on SF-268 CNS (assay: NCI-60 cell line screen, 48 h).

Compound | TGI [µM] | GI50 [µM]
O=c1c2cc(Br)cc(Br)c2nc(CCCl)n1CCO | > 100 | 
CC(=O)[C@@]1(O)CC[C@H]2[C@@H]3C[C@H](C)C4=CC(=O)C=C[C@]4(C)[C@@]3(F)[C@@H](O)C[C@@]21C | > 100 | 
Nc1ccn(C2CCC(CO)O2)c(=O)n1 (stereo not drawn) | > 1000 | > 1000
O=C1CCCC[C@H]1[C@H]1CCC[C@@H]([C@H]2CCCCC2=O)C1=O | > 100 | 
O=C1NC2OC(C(O)CO)C(O)C2O1 (stereo not drawn) | > 100 | 
C/C(CC(=O)NCCc1ccccc1)=N\NC(=O)C[n+]1ccccc1 | > 100 | 

The compounds below were run on SF-295 CNS (assay: NCI-60 cell line screen, 48 h).

Compound | TGI [µM] | GI50 [µM]
O=c1c2cc(Br)cc(Br)c2nc(CCCl)n1CCO | > 100 | 
CC(=O)[C@@]1(O)CC[C@H]2[C@@H]3C[C@H](C)C4=CC(=O)C=C[C@]4(C)[C@@]3(F)[C@@H](O)C[C@@]21C | > 100 | 
Nc1ccn(C2CCC(CO)O2)c(=O)n1 (stereo not drawn) | > 1000 | > 1000
O=C1CCCC[C@H]1[C@H]1CCC[C@@H]([C@H]2CCCCC2=O)C1=O | > 100 | 
O=C1NC2OC(C(O)CO)C(O)C2O1 (stereo not drawn) | > 100 | 
C/C(CC(=O)NCCc1ccccc1)=N\NC(=O)C[n+]1ccccc1 | > 100 | 

The compounds below were run on SF-539 CNS (assay: NCI-60 cell line screen, 48 h).

Compound | TGI [µM] | GI50 [µM]
O=c1c2cc(Br)cc(Br)c2nc(CCCl)n1CCO | > 100 | 
CC(=O)[C@@]1(O)CC[C@H]2[C@@H]3C[C@H](C)C4=CC(=O)C=C[C@]4(C)[C@@]3(F)[C@@H](O)C[C@@]21C | > 100 | 
Nc1ccn(C2CCC(CO)O2)c(=O)n1 (stereo not drawn) | > 1000 | > 1000
O=C1CCCC[C@H]1[C@H]1CCC[C@@H]([C@H]2CCCCC2=O)C1=O | > 100 | 
C/C(CC(=O)NCCc1ccccc1)=N\NC(=O)C[n+]1ccccc1 | > 100 | 

The compounds below were run on SK-MEL-2 melanoma (assay: NCI-60 cell line screen, 48 h).

Compound | TGI [µM] | GI50 [µM]
O=c1c2cc(Br)cc(Br)c2nc(CCCl)n1CCO | > 100 | 
CC(=O)[C@@]1(O)CC[C@H]2[C@@H]3C[C@H](C)C4=CC(=O)C=C[C@]4(C)[C@@]3(F)[C@@H](O)C[C@@]21C | > 100 | 
Nc1ccn(C2CCC(CO)O2)c(=O)n1 (stereo not drawn) | > 1000 | > 1000
O=C1CCCC[C@H]1[C@H]1CCC[C@@H]([C@H]2CCCCC2=O)C1=O | > 100 | 
